ChEMBL document CHEMBL3286360, “Tuning the antimicrobial pharmacophore to enable discovery of short lipopeptides with multiple modes of action” (Eur J Med Chem, 2014)
In brackets after ≈: the same amount, converted by molar mass. Where a SMILES comes first, the peptide text is derived from it. The star is where a group is joined. Stearoyl = CCCCCCCCCCCCCCCCCC(=O)*; Palmitoyl = CCCCCCCCCCCCCCCC(=O)*; Myristoyl = CCCCCCCCCCCCCC(=O)*; Lauroyl = CCCCCCCCCCCC(=O)*; Decanoyl = CCCCCCCCCC(=O)*; Octanoyl = CCCCCCCC(=O)*; Hexanoyl = CCCCCC(=O)*

Legend:
Format in all cases: functional
Escherichia coli = assay: Antimicrobial activity against Escherichia coli ATCC 25922 after 17 to 20 hrs by serial dilution method
Staphylococcus aureus = assay: Antimicrobial activity against Staphylococcus aureus ATCC 12600 after 17 to 20 hrs by serial dilution method
Candida albicans = assay: Antimicrobial activity against Candida albicans ATCC 14053 after 17 to 20 hrs by serial dilution method

SMILES | MIC (Escherichia coli) | MIC (Staphylococcus aureus) | MIC (Candida albicans)
CCCCCCCCCCCCCCCCCC(=O)N[C@@H](CCCNC(=N)N)C(=O)N[C@H](C(=O)N[C@@H](CCCCN)C(=O)N[C@@H](Cc1c[nH]c2ccccc12)C(=O)N[C@@H](CCCCN)C(N)=O)[C@@H](C)CC (Stearoyl-RIKWK-NH2) | > 31.2 µg/mL | > 31.2 µg/mL | > 62.5 µg/mL
CCCCCCCCCCCCCCCCCC(=O)N[C@@H](CCCCN)C(=O)N[C@@H](Cc1c[nH]c2ccccc12)C(=O)N[C@@H](Cc1c[nH]c2ccccc12)C(=O)N[C@@H](CCCCN)C(N)=O (Stearoyl-KWWK-NH2) | > 31.2 µg/mL | > 31.2 µg/mL | > 62.5 µg/mL
CCCCCCCCCCCCCCCCCC(=O)N[C@@H](CCCNC(=N)N)C(=O)N[C@@H](CCCCN)C(=O)N[C@@H](Cc1c[nH]c2ccccc12)C(=O)N[C@@H](Cc1c[nH]c2ccccc12)C(=O)N[C@@H](CCCCN)C(N)=O (Stearoyl-RKWWK-NH2) | 125 µg/mL (≈ 117 µM) | 31.2 µg/mL (≈ 29.2 µM) | > 62.5 µg/mL
CCCCCCCCCCCCCCCCCC(=O)N[C@@H](CCCCN)C(=O)N[C@@H](CCCCN)C(=O)N[C@@H](Cc1c[nH]c2ccccc12)C(=O)N[C@@H](Cc1c[nH]c2ccccc12)C(N)=O (Stearoyl-KKWW-NH2) | > 31.2 µg/mL | > 31.2 µg/mL | > 62.5 µg/mL
CCCCCCCCCCCCCC(=O)N[C@@H](CCCCN)C(=O)N[C@H](C(=O)N[C@@H](CCCNC(=N)N)C(=O)N[C@@H](Cc1c[nH]c2ccccc12)C(=O)N[C@@H](Cc1c[nH]c2ccccc12)C(=O)N[C@@H](CCCNC(=N)N)C(N)=O)[C@@H](C)CC (Myristoyl-KIRWWR-NH2) | 31.2 µg/mL (≈ 27 µM) | 15.6 µg/mL (≈ 13.5 µM) | > 62.5 µg/mL
CCCCCCCC(=O)N[C@@H](CCCNC(=N)N)C(=O)N[C@@H](CCCCN)C(=O)N[C@@H](Cc1c[nH]c2ccccc12)C(=O)N[C@@H](Cc1c[nH]c2ccccc12)C(=O)N[C@@H](CCCCN)C(N)=O (Octanoyl-RKWWK-NH2) | 62.5 µg/mL (≈ 67.3 µM) | 15.6 µg/mL (≈ 16.8 µM) | –
CCCCCC(=O)N[C@@H](CCCNC(=N)N)C(=O)N[C@@H](CCCCN)C(=O)N[C@@H](Cc1c[nH]c2ccccc12)C(=O)N[C@@H](Cc1c[nH]c2ccccc12)C(=O)N[C@@H](CCCCN)C(N)=O (Hexanoyl-RKWWK-NH2) | > 62.5 µg/mL | 31.2 µg/mL (≈ 34.7 µM) | –
CCCCCCCCCCCCCCCC(=O)N[C@@H](CCCNC(=N)N)C(=O)N[C@@H](CCCCN)C(=O)N[C@@H](Cc1c[nH]c2ccccc12)C(=O)N[C@@H](Cc1c[nH]c2ccccc12)C(=O)N[C@@H](CCCCN)C(N)=O (Palmitoyl-RKWWK-NH2) | 31.2 µg/mL (≈ 30 µM) | 31.2 µg/mL (≈ 30 µM) | –

Stronger by MIC (Escherichia coli), values ahead:

MIC (Escherichia coli) | MIC (Staphylococcus aureus) | MIC (Candida albicans) | SMILES
15.6 µg/mL (≈ 14.2 µM) | 3.9 µg/mL (≈ 3.55 µM) | > 62.5 µg/mL | CCCCCCCCCC(=O)N[C@@H](CCCCN)C(=O)N[C@H](C(=O)N[C@@H](CCCNC(=N)N)C(=O)N[C@@H](Cc1c[nH]c2ccccc12)C(=O)N[C@@H](Cc1c[nH]c2ccccc12)C(=O)N[C@@H](CCCNC(=N)N)C(N)=O)[C@@H](C)CC (Decanoyl-KIRWWR-NH2)
7.8 µg/mL (≈ 7.5 µM) | 7.8 µg/mL (≈ 7.5 µM) | > 62.5 µg/mL | CCCCCCCCCC(=O)N[C@@H](CCCCN)C(=O)N[C@@H](CCCCN)C(=O)N[C@H](C(=O)N[C@@H](CCCNC(=N)N)C(=O)N[C@@H](Cc1c[nH]c2ccccc12)C(=O)N[C@@H](CCCNC(=N)N)C(N)=O)[C@@H](C)CC (Decanoyl-KKIRWR-NH2)
7.8 µg/mL (≈ 9.75 µM) | 3.9 µg/mL (≈ 4.87 µM) | 31.2 µg/mL (≈ 39 µM) | CCCCCCCCCC(=O)N[C@@H](CCCCN)C(=O)N[C@@H](CCCCN)C(=O)N[C@@H](Cc1c[nH]c2ccccc12)C(=O)N[C@@H](Cc1c[nH]c2ccccc12)C(N)=O (Decanoyl-KKWW-NH2)
7.8 µg/mL (≈ 9.77 µM) | 3.9 µg/mL (≈ 4.89 µM) | > 62.5 µg/mL | CCCCCCCCCCCCCC(=O)N[C@@H](CCCCN)C(=O)N[C@@H](CCCCN)C(=O)N[C@@H](Cc1c[nH]c2ccccc12)C(=O)N[C@@H](CCCCN)C(N)=O (Myristoyl-KKWK-NH2)
7.8 µg/mL (≈ 7.92 µM) | 7.8 µg/mL (≈ 7.92 µM) | – | CCCCCCCCCCCC(=O)N[C@@H](CCCNC(=N)N)C(=O)N[C@@H](CCCCN)C(=O)N[C@@H](Cc1c[nH]c2ccccc12)C(=O)N[C@@H](Cc1c[nH]c2ccccc12)C(=O)N[C@@H](CCCCN)C(N)=O (Lauroyl-RKWWK-NH2)
